Values quoted from earlier work in patent US20060084635A1, “Aspirin and vitamin and/or trace element compositions for the amelioration and treatment of vascular disease” (priority 1993, published 2006).
“Also recorded” adds a separate entry of the source. Like-named read-outs stand apart in the source and are kept apart here.

How the values were obtained:
vascular tissue = test system: vascular tissue; set-up: key: + Beneficial; 0 No Effect; − Detrimental
[1] = test system: prostaglandins in the vascular wall and platelets
[2] = test system: serum cholesterol and triglycerides; details: for blood serum levels of cholesterol and triglycerides: in vivo
[3] = in sufficient amounts
[4] = test system: vascular lesions in branches of the aorta and cerebral arteries; details: rats; diet containing seven times the level of zinc required for normal growth
[5] = test system: immune-triggered endothelial damage
[6] = test system: vascular wall wound healing; details: rat, in vivo
atherosclerotic lesions = details: animals fed an atherogenic diet
[7] = test system: retirement community residents; details: for All Deaths RR / Ischemic Heart Disease RR / Myocardial Infarction RR / Other Heart Disease RR / Stroke RR / Total Cardiovascular Deaths RR: relative risk vs Aspirin− Vitamin−

Compound: CC(=O)Oc1ccccc1C(=O)O [Aspirin, aspirin]
- tendency of blood clot formation (platelets; through platelet activity): reduces the tendency of blood clot formation
- Anti-Aggregant (vascular tissue; Table 1): +
- Decreased Formation of Clots (vascular tissue; Table 1): +
- Decreased Immune-Induced Lesions (vascular tissue; Table 1): 0
- Decreased Peroxidation (vascular tissue; Table 1): 0
- Decreases Serum Cholesterol (vascular tissue; Table 1): 0
- Inhibition of Cholesterol Migration (vascular tissue; Table 1): +
- Platelet Activity (vascular tissue; Table 1): −
- Prostaglandin Synthesis (vascular tissue; Table 1): −
- Speeding of Wound Healing (vascular tissue; Table 1): −
- platelet prostaglandin function [1]: irreversibly block platelet prostaglandin function
- prostaglandin activity in the vascular wall [1]: reversibly decreases prostaglandin activity in the vascular wall

Compound: [Cr] [Chromium]
- Anti-Aggregant (vascular tissue; Table 2): 0
- Decreased Formation of Clots (vascular tissue; Table 2): 0
- Decreased Immune-Induced Lesions (vascular tissue; Table 2): 0
- Decreased Peroxidation (vascular tissue; Table 2): 0
- Decreases Serum Cholesterol (vascular tissue; Table 2): +
- Inhibition of Cholesterol Migration (vascular tissue; Table 2): 0
- Platelet Activity (vascular tissue; Table 2): 0
- Prostaglandin Synthesis (vascular tissue; Table 2): 0
- Speeding of Wound Healing (vascular tissue; Table 2): 0

Compound: [Cu] [Copper]
- Anti-Aggregant (vascular tissue; Table 2): 0
- Decreased Formation of Clots (vascular tissue; Table 2): 0
- Decreased Immune-Induced Lesions (vascular tissue; Table 2): +
- Decreased Peroxidation (vascular tissue; Table 2): 0
- Decreases Serum Cholesterol (vascular tissue; Table 2): +
- Inhibition of Cholesterol Migration (vascular tissue; Table 2): 0
- Platelet Activity (vascular tissue; Table 2): 0
- Prostaglandin Synthesis (vascular tissue; Table 2): 0
- Speeding of Wound Healing (vascular tissue; Table 2): +

Compound: [Mg+2] [Magnesium]
- Anti-Aggregant (vascular tissue; Table 2): 0
- Decreased Formation of Clots (vascular tissue; Table 2): 0
- Decreased Immune-Induced Lesions (vascular tissue; Table 2): 0
- Decreased Peroxidation (vascular tissue; Table 2): 0
- Decreases Serum Cholesterol (vascular tissue; Table 2): +
- Inhibition of Cholesterol Migration (vascular tissue; Table 2): 0
- Platelet Activity (vascular tissue; Table 2): +
- Prostaglandin Synthesis (vascular tissue; Table 2): 0
- Speeding of Wound Healing (vascular tissue; Table 2): +

Compound: O=C(O)c1cccnc1 [Niacin, Niacin (nictotinic acid)]
- blood serum levels of cholesterol and triglycerides [2]: reduce the blood serum levels of cholesterol and triglycerides
- blood serum levels of cholesterol and triglycerides ([2]; listed as niacin): reduced
- Anti-Aggregant (vascular tissue; Table 1): 0
- Decreased Formation of Clots (vascular tissue; Table 1): 0
- Decreased Immune-Induced Lesions (vascular tissue; Table 1): 0
- Decreased Peroxidation (vascular tissue; Table 1): 0
- Decreases Serum Cholesterol (vascular tissue; Table 1): +
- Inhibition of Cholesterol Migration (vascular tissue; Table 1): 0
- Platelet Activity (vascular tissue; Table 1): 0
- Prostaglandin Synthesis (vascular tissue; Table 1): +
- Speeding of Wound Healing (vascular tissue; Table 1): 0
- undesirable effects of supplements [3]: skin flush and dizziness

Compound: [Se] [Selenium]
- Anti-Aggregant (vascular tissue; Table 2): +
- Decreased Formation of Clots (vascular tissue; Table 2): 0
- Decreased Immune-Induced Lesions (vascular tissue; Table 2): +
- Decreased Peroxidation (vascular tissue; Table 2): +
- Decreases Serum Cholesterol (vascular tissue; Table 2): +
- Inhibition of Cholesterol Migration (vascular tissue; Table 2): 0
- Platelet Activity (vascular tissue; Table 2): +
- Prostaglandin Synthesis (vascular tissue; Table 2): +
- Speeding of Wound Healing (vascular tissue; Table 2): 0

Compound: Cc1ncc(CO)c(CO)c1O.Cl [Vitamin B6]
- Anti-Aggregant (vascular tissue; Table 1): 0
- Decreased Formation of Clots (vascular tissue; Table 1): 0
- Decreased Immune-Induced Lesions (vascular tissue; Table 1): 0
- Decreased Peroxidation (vascular tissue; Table 1): 0
- Decreases Serum Cholesterol (vascular tissue; Table 1): +
- Inhibition of Cholesterol Migration (vascular tissue; Table 1): 0
- Platelet Activity (vascular tissue; Table 1): 0
- Prostaglandin Synthesis (vascular tissue; Table 1): 0
- Speeding of Wound Healing (vascular tissue; Table 1): 0

Compound: O=C1O[C@H]([C@@H](O)CO)C(O)=C1O [Vitamin C]
- Anti-Aggregant (vascular tissue; Table 1): 0
- Decreased Formation of Clots (vascular tissue; Table 1): 0
- Decreased Immune-Induced Lesions (vascular tissue; Table 1): 0
- Decreased Peroxidation (vascular tissue; Table 1): 0
- Decreases Serum Cholesterol (vascular tissue; Table 1): +
- Inhibition of Cholesterol Migration (vascular tissue; Table 1): 0
- Platelet Activity (vascular tissue; Table 1): 0
- Prostaglandin Synthesis (vascular tissue; Table 1): +
- Speeding of Wound Healing (vascular tissue; Table 1): 0
- prostaglandin activity in the vascular wall [1]: increases the level of activity of prostaglandins in the vascular wall
- prostaglandin activity in the vascular wall ([1]; listed as vitamin C): increased

Compound: [Zn] [Zinc]
- incidence and severity of vascular lesions / atherosclerosis [4]: reduced incidence of atherosclerosis in rats; also recorded: greatly reduced
- Anti-Aggregant (vascular tissue; Table 2): 0
- Decreased Formation of Clots (vascular tissue; Table 2): 0
- Decreased Immune-Induced Lesions (vascular tissue; Table 2): 0
- Decreased Peroxidation (vascular tissue; Table 2): 0
- Decreases Serum Cholesterol (vascular tissue; Table 2): +
- Inhibition of Cholesterol Migration (vascular tissue; Table 2): 0
- Platelet Activity (vascular tissue; Table 2): 0
- Prostaglandin Synthesis (vascular tissue; Table 2): 0
- Speeding of Wound Healing (vascular tissue; Table 2): 0

Compound: Vitamin A
- immune-triggered endothelial damage / immune-induced lesions [5]: preventative effect on immune-induced lesions
- anti-aggregant activity (platelets): mild anti-aggregant activity
- serum cholesterol levels ([2]; at higher doses): net increase in serum cholesterol levels
- Anti-Aggregant (vascular tissue; Table 1): +
- Decreased Formation of Clots (vascular tissue; Table 1): 0
- Decreased Immune-Induced Lesions (vascular tissue; Table 1): 0
- Decreased Peroxidation (vascular tissue; Table 1): 0
- Decreases Serum Cholesterol (vascular tissue; Table 1): −
- Inhibition of Cholesterol Migration (vascular tissue; Table 1): 0
- Platelet Activity (vascular tissue; Table 1): 0
- Prostaglandin Synthesis (vascular tissue; Table 1): 0
- Speeding of Wound Healing (vascular tissue; Table 1): +
- vascular wall wound healing / arterial healing [6]: improve arterial healing; also recorded: speeds vascular wall wound healing

Compound: Vitamin E
- severity of lesions (atherosclerotic lesions): reduce the severity of lesions
- immune-triggered endothelial damage / immune-induced lesions [5]: preventative effect on immune-induced lesions; also recorded: protective effect
- anti-aggregant activity (platelets): mild anti-aggregant effect
- serum and liver cholesterol levels ([2]; supplementation in vitamin E deficient animals): decrease serum and liver cholesterol levels in a dose- and time-dependent manner
- Anti-Aggregant (vascular tissue; Table 1): +
- Decreased Formation of Clots (vascular tissue; Table 1): 0
- Decreased Immune-Induced Lesions (vascular tissue; Table 1): +
- Decreased Peroxidation (vascular tissue; Table 1): +
- Decreases Serum Cholesterol (vascular tissue; Table 1): +
- Inhibition of Cholesterol Migration (vascular tissue; Table 1): 0
- Platelet Activity (vascular tissue; Table 1): 0
- Prostaglandin Synthesis (vascular tissue; Table 1): +
- Speeding of Wound Healing (vascular tissue; Table 1): 0

Compound: aspirin [Aspirin+ Vitamin−]
- All Deaths No. ([7]; Men): 45
- Ischemic Heart Disease No. ([7]; Men): 8
- Myocardial Infarction No. ([7]; Men): 7
- Other Heart Disease No. ([7]; Men): 6
- Stroke No. ([7]; Men): 2
- Total Cardiovascular Deaths No. ([7]; Men): 24
- All Deaths RR ([7]; Men): 1.00
- Ischemic Heart Disease RR ([7]; Men): 1.40
- Myocardial Infarction RR ([7]; Men): 0.88
- Other Heart Disease RR ([7]; Men): 1.52
- Stroke RR ([7]; Men): 0.50
- Total Cardiovascular Deaths RR ([7]; Men): 1.09
- All Deaths No. ([7]; Women): 47
- Ischemic Heart Disease No. ([7]; Women): 9
- Myocardial Infarction No. ([7]; Women): 4
- Other Heart Disease No. ([7]; Women): 6
- Stroke No. ([7]; Women): 4
- Total Cardiovascular Deaths No. ([7]; Women): 26
- All Deaths RR ([7]; Women): 0.82
- Ischemic Heart Disease RR ([7]; Women): 1.06
- Myocardial Infarction RR ([7]; Women): 0.49
- Other Heart Disease RR ([7]; Women): 0.81
- Stroke RR ([7]; Women): 0.68
- Total Cardiovascular Deaths RR ([7]; Women): 0.91

Compound: aspirin [Aspirin++ Vitamin−]
- All Deaths No. ([7]; Men): 65
- Ischemic Heart Disease No. ([7]; Men): 10
- Myocardial Infarction No. ([7]; Men): 7
- Other Heart Disease No. ([7]; Men): 7
- Stroke No. ([7]; Men): 7
- Total Cardiovascular Deaths No. ([7]; Men): 27
- All Deaths RR ([7]; Men): 1.35
- Ischemic Heart Disease RR ([7]; Men): 1.37
- Myocardial Infarction RR ([7]; Men): 0.91
- Other Heart Disease RR ([7]; Men): 1.57
- Stroke RR ([7]; Men): 1.53
- Total Cardiovascular Deaths RR ([7]; Men): 1.09
- All Deaths No. ([7]; Women): 77
- Ischemic Heart Disease No. ([7]; Women): 14
- Myocardial Infarction No. ([7]; Women): 10
- Other Heart Disease No. ([7]; Women): 12
- Stroke No. ([7]; Women): 9
- Total Cardiovascular Deaths No. ([7]; Women): 45
- All Deaths RR ([7]; Women): 1.36
- Ischemic Heart Disease RR ([7]; Women): 1.50
- Myocardial Infarction RR ([7]; Women): 1.25
- Other Heart Disease RR ([7]; Women): 1.41
- Stroke RR ([7]; Women): 1.58
- Total Cardiovascular Deaths RR ([7]; Women): 1.48
